Source: patent US20240261416A1, “SYNTHESIS OF NOVEL CEREBLON E3 LIGASE LIGANDS, COMPOUNDS FORMED THEREBY, AND PHARMACEUTICAL COMPOSITIONS CONTAINING THEM” (Wisconsin Alumni Research Foundation, priority 2023, published 2024)
Where two headings read alike, the source gives them in different places. Blank lines part the entries; values can stand above or below the compound they belong to. Where a SMILES comes first, the peptide text is derived from it. The star is where a group is joined. Cbz = O=C(OCc1ccccc1)*

Tests used:
CRBN-DDB1 complex [1] = target: T1, CRBN-DDB1 complex (Homo sapiens, UniProt Q96SW2); assay: fluorescence polarization (FP) assay, binding with the CRBN-DDB1 complex; details: single concentration of 1 μM; for binding to CRBN-DDB1 complex in FP assay (relative binding affinity): tested three times, conditions adjusted to around 84% of maximum signal for 1 μM lenalidomide
T1 sequence (Q96SW2 whole entry): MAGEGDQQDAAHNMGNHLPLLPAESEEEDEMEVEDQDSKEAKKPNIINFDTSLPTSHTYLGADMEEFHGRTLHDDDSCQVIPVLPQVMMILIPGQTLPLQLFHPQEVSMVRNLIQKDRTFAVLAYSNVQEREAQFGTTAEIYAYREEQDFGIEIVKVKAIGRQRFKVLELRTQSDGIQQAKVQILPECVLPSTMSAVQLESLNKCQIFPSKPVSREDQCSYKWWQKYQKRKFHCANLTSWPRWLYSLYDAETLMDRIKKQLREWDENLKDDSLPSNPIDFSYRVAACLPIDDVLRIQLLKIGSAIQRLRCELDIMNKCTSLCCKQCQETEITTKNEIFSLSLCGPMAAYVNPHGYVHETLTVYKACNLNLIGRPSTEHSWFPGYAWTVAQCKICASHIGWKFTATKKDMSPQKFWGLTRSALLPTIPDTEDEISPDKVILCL
T1 sequence (Q16531 2-1140 partner limits assumed): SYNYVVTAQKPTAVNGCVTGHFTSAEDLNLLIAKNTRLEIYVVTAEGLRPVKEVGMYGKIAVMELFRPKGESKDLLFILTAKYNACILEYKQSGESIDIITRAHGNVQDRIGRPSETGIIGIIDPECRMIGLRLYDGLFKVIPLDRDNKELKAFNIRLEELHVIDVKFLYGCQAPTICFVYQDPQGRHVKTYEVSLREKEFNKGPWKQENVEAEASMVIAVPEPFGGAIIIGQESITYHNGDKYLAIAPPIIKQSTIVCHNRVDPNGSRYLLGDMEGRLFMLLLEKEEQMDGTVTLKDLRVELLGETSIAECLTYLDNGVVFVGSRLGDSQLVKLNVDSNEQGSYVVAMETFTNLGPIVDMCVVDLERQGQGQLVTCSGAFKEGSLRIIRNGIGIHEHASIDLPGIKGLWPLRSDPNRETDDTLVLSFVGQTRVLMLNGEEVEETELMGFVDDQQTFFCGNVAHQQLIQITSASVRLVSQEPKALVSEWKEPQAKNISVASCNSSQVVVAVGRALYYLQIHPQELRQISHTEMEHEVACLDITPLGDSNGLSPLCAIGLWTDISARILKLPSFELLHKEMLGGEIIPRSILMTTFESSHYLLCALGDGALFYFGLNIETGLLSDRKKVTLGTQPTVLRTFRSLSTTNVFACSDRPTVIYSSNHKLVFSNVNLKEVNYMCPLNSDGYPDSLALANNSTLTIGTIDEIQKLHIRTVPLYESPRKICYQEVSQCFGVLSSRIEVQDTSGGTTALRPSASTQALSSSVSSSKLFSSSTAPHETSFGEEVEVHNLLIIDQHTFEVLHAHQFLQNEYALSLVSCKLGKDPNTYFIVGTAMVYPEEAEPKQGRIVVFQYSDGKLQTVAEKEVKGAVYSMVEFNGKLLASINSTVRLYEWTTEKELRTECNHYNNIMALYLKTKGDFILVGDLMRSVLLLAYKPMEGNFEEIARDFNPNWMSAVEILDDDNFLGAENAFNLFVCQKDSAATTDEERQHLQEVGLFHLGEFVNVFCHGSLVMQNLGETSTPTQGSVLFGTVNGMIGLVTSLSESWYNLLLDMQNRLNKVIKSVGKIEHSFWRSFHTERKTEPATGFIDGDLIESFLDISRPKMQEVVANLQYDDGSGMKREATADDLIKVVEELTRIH
Protocol: All analogs were tested at a single concentration of 1 μM three times.

CRBN-DDB1 complex [2] = target: T1, CRBN-DDB1 complex; assay: as above
[3] = stability in human liver microsomes (hLM); assay type: in vitro ADME; details: after 0.5 h
[4] = stability in phosphate buffer with different pHs; assay type: physicochemical; details: for PB7.4, percent compound remaining: phosphate buffer pH 7.4, after 24 h, 37° C.
[5] = stability in phosphate buffer with different pHs; assay type: physicochemical; details: phosphate buffer pH 1.0, after 24 h
Description: (§1) Under acidic conditions, all compounds are very stable.

[6] = stability in human plasma (hP); assay type: in vitro ADME; details: after 4.0 h
Description: as §1

MV4; 11 cells [7] = assay: AlamarBlue cell viability; assay type: cell-based, human; details: 72 h
Protocol: (§2) FIGS. 9A-9D. Functional studies of the PROTACs including anti-proliferation, apoptosis, G1 phase arrest, and reduced population in S phase. (FIG. 9A) AlamarBlue™ Cell Viability. […] (FIG. 9B) MV4; 11 cells were treated by indicated dosage of 13 for 48 h followed by flow cytofluorimetric cell cycle analysis. (FIGS. 9C and 9D) MV4; 11 cells were treated by indicated dosage of 13 for 48 h followed by flow cytofluorimetric apoptosis analyses.
AlamarBlue Cell Viability Cells were seeded in a 96-well plate at a density of 5000-10000 cells in 100 μl media per well and treated with DMSO control or test compounds at indicated doses. After incubated in CO2 incubator for 72 hours, cells were treated with 10 μL AlamarBlue solution ([…])). Fluorescence was measured in a plate reader with an excitation wavelength at 530-560 nm and emission wavelength at 590 nm. The fluorescence was normalized to the DMSO-treated cells, and the IC50 was calculated using GraphPad Prism 9 software.

BRD4 in MV4; 11 cells = BRD4 in MV4; 11 cells (Homo sapiens, UniProt O60885); assay: Western blot of BRD4 in MV4; 11 cells (time course, dose response, mechanism); assay type: cell-based; details: for effect of 1 h pretreatment on BRD4 degradation induced by 13: pretreated 1 h, then 13 for 3 h
Description: We next verified the mechanism of action of degrader 13 (FIGS. 8G-8H).

MV4; 11 cells [8] = assay: flow cytofluorimetric cell cycle analysis; assay type: cell-based, human; details: 48 h
Protocol: as §2
(§3) Flow Cytometry Cell apoptosis and cell cycle were detected by Attune Flow cytometer (Thermo Fisher). Cells were seeded in a 6-well plate and treated with the indicated concentrations of compounds for 48 h. For samples for cell apoptosis detection, cells were harvested and incubated in Annexin V-FITC and PI reagents each for 15 minutes (Annexin V-FITC apoptosis detection kit, Invitrogen). For the samples for cell cycle detection, cells were fixed in 70% cold ethanol overnight and stained with PI (500 μg/ml) for 15 minutes. Flow data were analyzed using Flowjo software.

caspase 3 cleavage = assay: Western blot of caspase 3 and cleaved caspase 3 in MV4; 11 cells; details: at 10 nm to 10 µM concentrations
MV4; 11 cells [9] = assay: flow cytofluorimetric apoptosis analysis; assay type: cell-based, human; details: 48 h
Protocol: as §2, §3

[10] = in-vivo in humans; cited from earlier work
[11] = in human blood; cited from earlier work
[12] = phosphate buffer pH 8.8, after 24 h

Compound: O=C1CCN(c2ccccc2O)C(=O)N1 [Compound 3A, 1-(2-hydroxyphenyl)dihydropyrimidine-2,4(1H,3H)-dione]
binding to CRBN-DDB1 complex in FP assay, in words (CRBN-DDB1 complex [1]): almost completely lost the binding affinity

binding to CRBN-DDB1 complex in FP assay (relative binding affinity) (CRBN-DDB1 complex [1]): 35%
increase of affinity by ortho-Me relative to parent PDHU 2 (CRBN-DDB1 complex [2]; FP assay Kd): about 2.5 times
Compound: Cc1ccccc1N1CCC(=O)NC1=O [Compound 3B, 1-(o-tolyl)dihydropyrimidine-2,4(1H,3H)-dione]

binding to CRBN-DDB1 complex in FP assay, in words (CRBN-DDB1 complex [1]): decreased the binding
Compound: COc1ccccc1N1CCC(=O)NC1=O [Compound 3C, 1-(2-methoxyphenyl)dihydropyrimidine-2,4(1H,3H)-dione]

binding to CRBN-DDB1 complex in FP assay (relative binding affinity) (CRBN-DDB1 complex [1]): 29%
Compound: CCc1ccccc1N1CCC(=O)NC1=O [Compound 3D, 1-(2-ethylphenyl)dihydropyrimidine-2,4(1H,3H)-dione]

binding to CRBN-DDB1 complex in FP assay (relative binding affinity) (CRBN-DDB1 complex [1]): 36%
Compound: O=C1CCN(c2ccccc2Cl)C(=O)N1 [Compound 3E, 1-(2-chlorophenyl)dihydropyrimidine-2,4(1H,3H)-dione]

binding to CRBN-DDB1 complex in FP assay (relative binding affinity) (CRBN-DDB1 complex [1]): 57%
Compound: O=C1CCN(c2cccc(O)c2)C(=O)N1 [Compound 4A, 1-(3-hydroxyphenyl)dihydropyrimidine-2,4(1H,3H)-dione]

binding to CRBN-DDB1 complex in FP assay (relative binding affinity) (CRBN-DDB1 complex [1]): 33%
Compound: COc1cccc(N2CCC(=O)NC2=O)c1 [Compound 4C, 1-(3-methoxyphenyl)dihydropyrimidine-2,4(1H,3H)-dione]

binding to CRBN-DDB1 complex in FP assay (relative binding affinity) (CRBN-DDB1 complex [1]): 56%
Compound: CC(C)(C)OC(=O)NCC#Cc1cccc(N2CCC(=O)NC2=O)c1 [Compound 4F, tert-butyl (3-(3-(2,4-dioxotetrahydropyrimidin-1(2H)-yl)phenyl)prop-2-yn-1-yl)carbamate]

binding to CRBN-DDB1 complex in FP assay (relative binding affinity) (CRBN-DDB1 complex [1]): 44%
Compound: CC(C)(C)OC(=O)COc1cccc(N2CCC(=O)NC2=O)c1 [Compound 4K, tert-butyl 2-(3-(2,4-dioxotetrahydropyrimidin-1(2H)-yl)phenoxy)acetate]

binding to CRBN-DDB1 complex in FP assay (relative binding affinity) (CRBN-DDB1 complex [1]): 38%
Compound: O=C1CCN(c2ccc(O)cc2)C(=O)N1 [Compound 5A, 1-(4-hydroxyphenyl)dihydropyrimidine-2,4(1H,3H)-dione]
binding to CRBN-DDB1 complex in FP assay, in words (CRBN-DDB1 complex [1]): did not improve the binding as much as those on the meta-positions

Compound: CC(C)(C)OC(=O)COc1ccc(N2CCC(=O)NC2=O)cc1 [Compound 5K, tert-butyl 2-(4-(2,4-dioxotetrahydropyrimidin-1(2H)-yl)phenoxy)acetate]
binding to CRBN-DDB1 complex in FP assay, in words (CRBN-DDB1 complex [1]): did not improve the binding as much as those on the meta-positions

hLM, percent compound remaining [3]: 87%
PB7.4, percent compound remaining [4]: >99%
PB8.8, percent compound remaining [4, 12]: 93%
PB1.0, percent compound remaining [5]: >99%
hP, percent compound remaining [6]: 97%
Compound: Cc1c(C#CCNC(=O)OC(C)(C)C)cccc1N1CCC(=O)NC1=O [Compound 6F, tert-butyl (3-(3-(2,4-dioxotetrahydropyrimidin-1(2H)-yl)-2-methylphenyl)prop-2-yn-1-yl)carbamate]

binding to CRBN-DDB1 complex in FP assay (relative binding affinity) (CRBN-DDB1 complex [1]): 81%
Compound: Cc1ccc(O)cc1N1CCC(=O)NC1=O [Compound 7A, 1-(5-hydroxy-2-methylphenyl)dihydropyrimidine-2,4(1H,3H)-dione]

hLM, percent compound remaining [3]: 85%
PB7.4, percent compound remaining [4]: >99%
PB8.8, percent compound remaining [4, 12]: 95%
PB1.0, percent compound remaining [5]: >99%
Compound: Cc1c(OCC(=O)N2CCCCC2)cccc1N1CCC(=O)NC1=O [Compound 9, 1-(2-methyl-3-(2-oxo-2-(piperidin-1-yl)ethoxy)phenyl)dihydropyrimidine-2,4(1H,3H)-dione]
anti-proliferation activity, in words (MV4; 11 cells [7]): did not show any anti-proliferation activity at up to 100 μM
effect of 1 h pretreatment on BRD4 degradation induced by 13 (BRD4 in MV4; 11 cells): abolished the BRD4 degradation induced by 13

hLM, percent compound remaining [3]: 100%
PB7.4, percent compound remaining [4]: >99%
PB8.8, percent compound remaining [4, 12]: 95%
PB1.0, percent compound remaining [5]: >99%
Compound: CCNC(=O)COc1cccc(N2CCC(=O)NC2=O)c1C [Compound 10, 2-(3-(2,4-dioxotetrahydropyrimidin-1(2H)-yl)-2-methylphenoxy)-N-ethylacetamide]

hLM, percent compound remaining [3]: 90%
PB7.4, percent compound remaining [4]: >99%
PB8.8, percent compound remaining [4, 12]: 90%
PB1.0, percent compound remaining [5]: >99%
Compound: CC(=O)NCCC#Cc1cccc(N2CCC(=O)NC2=O)c1C [Compound 11, N-(4-(3-(2,4-dioxotetrahydropyrimidin-1(2H)-yl)-2-methylphenyl)but-3-yn-1-yl)acetamide]

Compound: Cc1sc2c(c1C)C(c1ccc(Cl)cc1)=N[C@@H](CC(=O)NC1CCN(C(=O)COc3cccc(N4CCC(=O)NC4=O)c3C)CC1)c1nnc(C)n1-2 [Compound 13, (S)-2-(4-(4-chlorophenyl)-2,3,9-trimethyl-6H-thieno[3,2-f][1,2,4]triazolo[4,3-a][1,4]diazepin-6-yl)-N-(1-(2-(3-(2,4-dioxotetrahydropyrimidin-1(2H)-yl)-2-methylphenoxy)acetyl)piperidin-4-yl)acetamide]
cell cycle effect, in words (MV4; 11 cells [8]): induce G1 phase arrest, decrease the cell population in S phase
caspase 3 cleavage, in words (caspase 3 cleavage): successful in inducing caspase 3 cleavage
cell apoptosis, in words (MV4; 11 cells [9]): induce cell apoptosis in a dose-dependent manner

Compound: Cc1sc2c(c1C)C(c1ccc(Cl)cc1)=N[C@@H](CC(=O)NC1CCN(C(=O)COc3cccc(N4CCC(=O)N(C)C4=O)c3C)CC1)c1nnc(C)n1-2 [Compound 13NT, (S)-2-(4-(4-chlorophenyl)-2,3,9-trimethyl-6H-thieno[3,2-f][1,2,4]triazolo[4,3-a][1,4]diazepin-6-yl)-N-(1-(2-(2-methyl-3-(3-methyl-2,4-dioxotetrahydropyrimidin-1(2H)-yl)phenoxy)acetyl)piperidin-4-yl)acetamide]
BRD4 degradation activity, in words (BRD4 in MV4; 11 cells; several concentrations, 24 h): No degradation activity of BRD4 was observed

binding to CRBN-DDB1 complex in FP assay (relative binding affinity) (CRBN-DDB1 complex [1]): 70%
Kd (CRBN-DDB1 complex [2]; FP assay): 170 nM
Compound: Cc1ccc(Oc2ccc(C=O)cc2)cc1N1CCC(=O)NC1=O [Compound 15A]

binding to CRBN-DDB1 complex in FP assay (relative binding affinity) (CRBN-DDB1 complex [1]): 33%
Compound: O=Cc1ccc(Oc2cccc(N3CCC(=O)NC3=O)c2)cc1 [Compound 15B]

binding to CRBN-DDB1 complex in FP assay (relative binding affinity) (CRBN-DDB1 complex [1]): 21%
Compound: Cc1c(Oc2ccc(C=O)cc2)cccc1N1CCC(=O)NC1=O [Compound 15C]

binding to CRBN-DDB1 complex in FP assay, in words (CRBN-DDB1 complex [1]): slightly weaker than 15A
Compound: Cc1ccc(Oc2ccccc2)cc1N1CCC(=O)NC1=O [Compound 15D]

binding to CRBN-DDB1 complex in FP assay, in words (CRBN-DDB1 complex [1]): remain relatively high binding affinity
Compound: COC(=O)c1cccc(Nc2ccc(C)c(N3CCC(=O)NC3=O)c2)c1 [Compound 16A]

binding to CRBN-DDB1 complex in FP assay, in words (CRBN-DDB1 complex [1]): remain relatively high binding affinity
Compound: Cc1ccc(Nc2ccccc2)cc1N1CCC(=O)NC1=O [Compound 16B]

Compound: Cc1sc2c(c1C)C(c1ccc(Cl)cc1)=N[C@@H](CC(=O)OC(C)(C)C)c1nnc(C)n1-2 [JQ1, reference compound]
anti-proliferation activity, in words (MV4; 11 cells [7]): weaker anti-proliferation activity than 13, but higher activity than compound 13NT

hLM, percent compound remaining [3]: 89%
PB7.4, percent compound remaining [4]: 39%
PB8.8, percent compound remaining ([4]; phosphate buffer pH 8.8, after 2 h): 20%
PB8.8, percent compound remaining [4, 12]: 0%
PB1.0, percent compound remaining [5]: >99%
hP, percent compound remaining [6]: 62%
Compound: Nc1cccc2c1CN(C1CCC(=O)NC1=O)C2=O (stereo not shown) [Lenalidomide, lenalidomide, reference compound]

Compound: CC(C)C[C@@H](C=O)NC(=O)[C@H](CC(C)C)NC(=O)[C@H](CC(C)C)NC(=O)OCc1ccccc1 [MG132, reference compound] (Cbz-Leu-Leu-Leu-aldehyde)
effect of 1 h pretreatment on BRD4 degradation induced by 13 (BRD4 in MV4; 11 cells): abolished the BRD4 degradation induced by 13

Compound: NS(=O)(=O)OC[C@@H]1C[C@@H](n2ccc3c(N[C@H]4CCc5ccccc54)ncnc32)C[C@@H]1O [MLN4924, reference compound]
effect of 1 h pretreatment on BRD4 degradation induced by 13 (BRD4 in MV4; 11 cells): abolished the BRD4 degradation induced by 13

Compound: O=C1CCC(N2C(=O)c3ccccc3C2=O)C(=O)N1 (stereo not shown) [thalidomide]
racemization half-life [10]: ~5.0 h
racemization half-life [11]: ~2.0 h
